Reference: patent US20040146585A1, “Use of thiol-based compositions in treating chemotherapeutic agent-induced thrombocytopenia” (Oregon Health & Science University, priority 2002, published 2004)

Test system: patients with malignant brain tumors
Description: Blood/bone marrow toxicity data from patients with malignant brain tumors treated with carboplatin-based regimens with or without delayed high-dose STS were graded in accordance with National Cancer Institute Common Toxicity Criteria (NCI CTC) (version 2.0).
Treatment Regimen. Patients with a variety of malignant brain tumor histologies, including metastases to the brain, were eligible for treatment. Patients who had previously undergone central nervous system or systemic radiotherapy or chemotherapy were eligible, however 2 weeks must have elapsed since prior radiotherapy and 4 weeks since prior chemotherapy. Patients were required to have normal hematologic, renal and hepatic function.
The BBBD procedure was done on two consecutive days, approximately every 4 weeks for up to 12 months. Mannitol (25%) was infused (5-10 cc/sec) into the appropriate internal carotid or vertebral artery, depending on tumor location, for 30 seconds. The combination chemotherapy regimen consisted of cyclophosphamide (330 Mg/m^2/day×2 days; total dose, 660 mg/m^2) (i.v.) beginning approximately 20 minutes before the mannitol infusion, carboplatin (200 mg/m^2/day×2 days; total dose, 400 Mg/m^2) (i.a.) administered over 10 minutes, within 5 minutes after the mannitol, and etoposide (i.v.) or etoposide phosphate (200 mg/m^2/day×2 days; total dose, 400 mg/m^2) (i.a. or i.v.). Patients received granulocyte-colony stimulating factor (G-CSF) (5 mcg/kg) for 10 days after chemotherapy or until the absolute neutrophil count was greater than 1000/μL.
STS was available as a 25% (250 mg/ml) solution. Dose was determined (16 or 20 grams/m^2) and mixed with an equivalent amount of sterile water (1 ml: 1 ml) for infusion. […] The most commonly used regimen was benadryl (12.5 mg), dexamethasone (6 mg), and if needed, ativan (0.5-1.0 mg), i.v. 30-45 minutes before STS.
STS was administered i.v. over about 15 minutes. The number of STS doses the patient received depended on the patient baseline hearing status, and whether they experienced an ototoxic shift during treatment. Patients treated with BBBD/STS received STS in one dose (20 grams/m^2) 4 hours after carboplatin (n=10), or two doses (20 grams/m^2 at 4 hrs, and 16 grams/m^2 at 8 hours) after carboplatin (n=19).
Because malignant brain tumor patients are at risk for intracerebral hemorrhage, patients underwent platelet transfusion when platelet count was <20×10^3/mm^3. Following a platelet transfusion, on subsequent chemotherapy courses the carboplatin dose was reduced 25%.
Data Analysis. Blood/bone marrow toxicity data were graded in accordance with NCI CTC and analyzed in the following […] treatment groups: 1) patients treated with carboplatin, cyclophosphamide and etoposide with BBBD and without STS, and 2) patients treated with carboplatin, cyclophosphamide and etoposide phosphate with BBBD and with STS. For both groups, blood/bone marrow toxicity data from all carboplatin-based courses of patients in treatment were included in the analysis.
First, platelet nadirs were plotted for each subject and as means for each of the three study groups. For group comparisons, a mixed, repeated measures analysis of variance (ANOVA) model was fit using the parameter platelet nadir for each course as the measure. Gender, […] (≧70 or not), prior chemotherapy, prior radiation, and age at first course were included as covariates. Several other events were examined including grade 3 or 4 platelet toxicity as defined by NCI CTC, platelet transfusion, and the need for hematologically driven chemotherapy dose reduction. […] For present/absent outcomes as these, a mixed model repeated measures analysis (using the present/absent outcomes as the best response for each course) was performed. The mixed model ANOVA's using presence/absence of the outcome was adjusted for the covariates listed above.
Analyses were performed using Version 8.01 of SAS® for Windows.

## O=S([O-])([O-])=S.[Na+].[Na+] [STS, sodium thiosulfate]
16 or 20 grams/m^2 i.v., National Cancer Institute CTC, version 2.0
  adverse effects caused by high-dose STS: transient hypematremia, hypertension, and controllable grade II nausea and vomiting
BBBD with STS
  patients requiring dose reduction of carboplatin: no patients
BBBD/STS, 129 courses
  Platelet Nadir <20 × 10^3/mm^3, percent of carboplatin courses: 1% courses
  Platelet Transfusions, percent of carboplatin courses: 2% courses
BBBD/STS, n = 29
  Dose Reductions of carboplatin, percent of patients: 0% pts
  Platelet Transfusions, percent of patients: 7% pts
BBBD/STS, n = 29, carboplatin, cyclophosphamide, etoposide phosphate, STS i.v. 20 grams/m^2 at 4 h (and 16 grams/m^2 at 8 h) after carboplatin
  Platelet Nadir <20 × 10^3/mm^3, percent of patients: 4% pts
NCI CTC
  grade 3 or 4 white blood cell toxicity, treatment groups with vs without STS: no significant difference among treatment groups
NCI CTC, adjusted for age at first carboplatin treatment, p=0.14
  grade 3 or 4 platelet toxicity, treatment groups with vs without STS: no significant difference among the treatment groups
Pearson chi-square test
  rates of dose reduction of carboplatin, treatment groups with vs without STS: difference between the treatment groups was significant
Mixed model, p=0.035
  platelet transfusion (present or absent), treatment groups with vs without STS: significant difference between the treatment groups
mixed-model analysis of variance controlling for KPS≧70 and prior chemotherapy, p=0.0002
  platelet nadir <20×10^3/mm^3 (binary), treatment groups with vs without STS: significant difference among the two treatment groups
Patients treated with BBBD and STS, mixed model estimate (22.4% for BBBD without STS)
  estimated probabilities of platelet transfusions: 9.0%
